Reference: paper PMC7861629 (Bosnian Journal of Basic Medical Sciences, 2021)

How the values were obtained:
[1] = rat
Procedure: The weight of the pieces applied was 25.2 ± 1.6 mg (mean ± standard deviation [SD]) and the amount of vancomycin in the collagen sponge pieces was 11.2 ± 0.7 mg (mean ± SD). For placebo group (n = 6), a 10 mm × 10 mm piece of placebo-containing collagen sponge was applied. The pocket on the sham surgery side was sutured with no sponge so as to provide for a control.
We administered 7.5 mg of vancomycin intraperitoneally to rats accompanied by a similar induction of s.c. infection; we measured the plasma levels in the same way as we did for the active arm.
Blood samples (volume, 0.5 mL) for determination of vancomycin and haptoglobin levels were drawn from the jugular vein into a 0.5 mL heparinized syringe under isoflurane anesthesia. Samples were drawn from three animals in vancomycin group 0.5, 1, 2, and 4 h following inoculation on the 1st day to determine vancomycin and haptoglobin levels. Samples were also taken from all animals in placebo group on the 1st day 2 h following inoculation to determine haptoglobin level only. Samples from four animals in vancomycin group and two animals in placebo group were drawn on the 1st, 2nd, and 3rd day following inoculation. The final sample was drawn intracardially upon termination on day 4 following inoculation. The samples were centrifuged (12,000 rpm, 2 min) and the samples from days 1, 2, and 3 following inoculation were frozen at -20°C until analyzed. Vancomycin concentration in the blood as well as haptoglobin level (rat acute phase marker) were determined using a nephelometric method (Beckman Coulter, Indianapolis, IN, USA).

[2] = children, 1000 mg vancomycin powder during spinal deformity surgery; cited from earlier work
Procedure: Following the application of 1000 mg of vancomycin powder during sur ...

SMILES: CN[C@H](CC(C)C)C(=O)N[C@H]1C(=O)N[C@@H](CC(N)=O)C(=O)N[C@H]2C(=O)N[C@H]3C(=O)N[C@H](C(=O)N[C@H](C(=O)O)c4cc(O)cc(O)c4-c4cc3ccc4O)[C@H](O)c3ccc(c(Cl)c3)Oc3cc2cc(c3O[C@@H]2O[C@H](CO)[C@@H](O)[C@H](O)[C@H]2O[C@H]2C[C@](C)(N)[C@H](O)[C@H](C)O2)Oc2ccc(cc2Cl)[C@H]1O [vancomycin]
- AUC ([1]; 7.5 mg vancomycin i.p., calculated from obtained levels): 87.71 µg·h/mL
- vancomycin level after 24 h ([1]; 7.5 mg vancomycin i.p., detected in one animal only, nephelometric method): 0.2 mg/L
- expected AUC after 11.2 mg ([1]; i.p., extrapolated from 7.5 mg dose to the sponge dose): 130.9 µg·h/mL
- vancomycin level in fluid drained by subfascial drain, day 0 [2]: 403 mg/L
- vancomycin level in fluid drained by subfascial drain, day 1 [2]: 251 mg/L
- vancomycin level in fluid drained by subfascial drain, day 2 [2]: 115 mg/L
- vancomycin level in plasma, day 0 [2]: 2.5 mg/L
- vancomycin level in plasma, day 1 [2]: 1.9 mg/L
- vancomycin level in plasma, day 2 [2]: 1.1 mg/L
